Common to all, as to format: cell-based
Assay [1] deals with T1, human TLR9 (Homo sapiens, UniProt Q9NR96).
T1 construct: host or cells: HEK-Blue cells
T1 sequence (Q9NR96 26-1032): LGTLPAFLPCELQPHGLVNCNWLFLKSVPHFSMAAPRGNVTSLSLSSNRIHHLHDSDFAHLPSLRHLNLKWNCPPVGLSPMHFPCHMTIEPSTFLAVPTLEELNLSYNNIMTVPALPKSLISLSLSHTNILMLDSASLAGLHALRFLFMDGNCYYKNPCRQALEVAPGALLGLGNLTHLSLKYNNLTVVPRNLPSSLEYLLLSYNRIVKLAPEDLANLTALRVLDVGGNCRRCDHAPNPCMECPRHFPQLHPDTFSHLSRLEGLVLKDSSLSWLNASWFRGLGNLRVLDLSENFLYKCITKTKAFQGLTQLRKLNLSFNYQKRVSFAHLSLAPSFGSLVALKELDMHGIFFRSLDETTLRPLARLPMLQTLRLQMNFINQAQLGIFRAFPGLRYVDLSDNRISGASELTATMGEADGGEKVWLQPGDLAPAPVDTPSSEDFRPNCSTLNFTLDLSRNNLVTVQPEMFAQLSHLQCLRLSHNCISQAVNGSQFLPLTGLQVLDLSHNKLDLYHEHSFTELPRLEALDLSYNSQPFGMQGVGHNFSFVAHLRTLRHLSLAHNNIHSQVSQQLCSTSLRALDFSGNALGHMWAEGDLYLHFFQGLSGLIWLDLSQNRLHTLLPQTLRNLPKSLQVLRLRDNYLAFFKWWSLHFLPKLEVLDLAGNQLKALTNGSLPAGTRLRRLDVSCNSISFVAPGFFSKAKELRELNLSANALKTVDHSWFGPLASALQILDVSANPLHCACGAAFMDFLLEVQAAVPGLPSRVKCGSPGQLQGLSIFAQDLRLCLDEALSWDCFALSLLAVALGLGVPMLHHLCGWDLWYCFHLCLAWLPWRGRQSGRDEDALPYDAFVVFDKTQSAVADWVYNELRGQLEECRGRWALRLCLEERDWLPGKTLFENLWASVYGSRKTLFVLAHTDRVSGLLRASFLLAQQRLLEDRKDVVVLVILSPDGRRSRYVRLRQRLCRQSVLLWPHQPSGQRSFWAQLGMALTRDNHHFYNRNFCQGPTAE
The assay can be described thus: TLR9 inhibition reporter assay (HEK-Blue SEAP reporter, ODN2006 stimulation). The note with it: HEK-Blue cells overexpressing human TLR9, SEAP reporter, ODN2006 5 nM, 22 hour incubation. Put shortly:
(§1)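 Agonists used: gardiquimod 7.5 μM (TLR7), R848 15.9 μM (TLR8), ODN2006 5 nM (TLR9), added after 30 min room-temperature compound pre-treatment (0.05 nM–50 μM) of receptor-overexpressing HEK-Blue cells. SEAP reporter (NF-κB/AP-1 driven) read after 22 h at 37 °C; inhibition scaled between agonist+DMSO and reference-inhibitor wells.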
In general terms: In a reporter assay the amount or activity of a reporter protein is the signal.

Assay [2] has as its target T2, human TLR7 (Homo sapiens, UniProt Q9NYK1).
T2 construct: host or cells: HEK-Blue cells
T2 sequence (Q9NYK1 27-1049): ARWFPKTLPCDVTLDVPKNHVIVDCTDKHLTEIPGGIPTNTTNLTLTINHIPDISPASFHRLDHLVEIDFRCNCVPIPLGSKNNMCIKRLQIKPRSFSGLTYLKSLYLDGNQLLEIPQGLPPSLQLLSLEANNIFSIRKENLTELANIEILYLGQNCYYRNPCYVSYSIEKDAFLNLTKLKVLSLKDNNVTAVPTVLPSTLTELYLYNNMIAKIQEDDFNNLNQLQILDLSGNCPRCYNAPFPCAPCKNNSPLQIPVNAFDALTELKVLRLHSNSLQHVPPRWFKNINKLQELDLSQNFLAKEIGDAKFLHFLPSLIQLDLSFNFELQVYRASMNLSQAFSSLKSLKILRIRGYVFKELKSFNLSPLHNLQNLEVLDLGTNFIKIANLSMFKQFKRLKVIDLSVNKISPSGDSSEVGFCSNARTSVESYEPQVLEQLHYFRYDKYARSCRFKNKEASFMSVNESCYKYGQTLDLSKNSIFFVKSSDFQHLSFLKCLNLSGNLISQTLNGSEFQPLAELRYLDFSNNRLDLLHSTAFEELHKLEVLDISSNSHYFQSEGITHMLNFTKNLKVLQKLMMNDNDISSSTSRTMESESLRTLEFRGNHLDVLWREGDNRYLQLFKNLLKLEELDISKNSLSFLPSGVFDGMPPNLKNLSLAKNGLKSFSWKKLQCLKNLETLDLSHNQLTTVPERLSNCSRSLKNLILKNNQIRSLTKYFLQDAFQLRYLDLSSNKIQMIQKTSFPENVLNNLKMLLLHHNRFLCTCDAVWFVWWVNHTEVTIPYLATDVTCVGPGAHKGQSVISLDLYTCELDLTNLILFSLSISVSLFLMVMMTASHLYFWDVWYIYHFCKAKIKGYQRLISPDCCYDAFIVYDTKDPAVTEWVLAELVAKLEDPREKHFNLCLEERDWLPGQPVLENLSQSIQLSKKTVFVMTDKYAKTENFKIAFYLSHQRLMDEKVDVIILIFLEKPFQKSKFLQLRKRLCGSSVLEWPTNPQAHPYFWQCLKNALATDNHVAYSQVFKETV
The assay can be described thus: TLR7 inhibition reporter assay (HEK-Blue SEAP reporter, gardiquimod stimulation). The following applies: HEK-Blue cells overexpressing human TLR7, SEAP reporter, gardiquimod 7.5 μM, 22 hour incubation. The procedure, abridged: as §1

For assay [3], the target named is T3, human TLR8 (Homo sapiens, UniProt Q9NR97).
T3 construct: host or cells: HEK-Blue cells
T3 sequence (Q9NR97 27-1041): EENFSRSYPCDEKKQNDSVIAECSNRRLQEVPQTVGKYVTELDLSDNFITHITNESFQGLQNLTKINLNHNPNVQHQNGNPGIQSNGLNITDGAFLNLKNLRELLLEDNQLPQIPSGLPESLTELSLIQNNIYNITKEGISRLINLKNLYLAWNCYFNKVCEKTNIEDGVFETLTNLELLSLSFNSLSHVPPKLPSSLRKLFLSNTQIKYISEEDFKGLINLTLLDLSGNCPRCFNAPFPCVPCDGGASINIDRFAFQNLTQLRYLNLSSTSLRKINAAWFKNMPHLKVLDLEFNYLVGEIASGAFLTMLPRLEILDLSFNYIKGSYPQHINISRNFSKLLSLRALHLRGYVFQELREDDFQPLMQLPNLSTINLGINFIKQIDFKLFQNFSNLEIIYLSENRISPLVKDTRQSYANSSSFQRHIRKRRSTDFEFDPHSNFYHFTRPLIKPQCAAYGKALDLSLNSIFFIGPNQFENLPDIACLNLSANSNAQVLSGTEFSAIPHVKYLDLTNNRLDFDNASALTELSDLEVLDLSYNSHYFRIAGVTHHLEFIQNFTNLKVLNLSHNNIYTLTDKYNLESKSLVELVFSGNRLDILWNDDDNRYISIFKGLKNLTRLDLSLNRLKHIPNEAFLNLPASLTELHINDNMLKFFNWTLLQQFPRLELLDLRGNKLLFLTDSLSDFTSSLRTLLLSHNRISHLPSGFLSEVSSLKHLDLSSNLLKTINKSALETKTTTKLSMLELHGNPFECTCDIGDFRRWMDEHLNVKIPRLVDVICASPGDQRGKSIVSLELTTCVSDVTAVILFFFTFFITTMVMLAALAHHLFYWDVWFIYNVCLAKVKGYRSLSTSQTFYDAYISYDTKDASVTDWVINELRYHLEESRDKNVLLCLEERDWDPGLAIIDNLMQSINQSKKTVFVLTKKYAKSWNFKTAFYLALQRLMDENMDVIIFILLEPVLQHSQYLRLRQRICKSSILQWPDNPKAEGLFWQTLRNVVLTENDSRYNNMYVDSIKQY
Kind of assay: TLR8 inhibition reporter assay (HEK-Blue SEAP reporter, R848 stimulation). The note with it: HEK-Blue cells overexpressing human TLR8, SEAP reporter, R848 15.9 μM, 22 hour incubation. The procedure, abridged: as §1

Where only a bound is given, the exact number is not on record here.

By IC50 is commonly meant the concentration that gives 50% inhibition. Higher therefore signals weaker potency in that assay. Turning to `CC(C)c1c(-c2ccc(=O)n(C)c2)[nH]c2ccc(C3CCN(C(=O)CN(C)C)CC3)cc12` [Example 301, 5-(5-(1-(dimethylglycyl)piperidin-4-yl)-3-isopropyl-1H-indol-2-yl)-1-methylpyridin-2(1H)-one], the IC50 was 1830 nM in assay [1], 25.7 nM in assay [2] and 36.5 nM in assay [3].
For `CCCN1CCC(c2ccc3[nH]c(-c4cc(-c5cnn(C)c5)c(=O)n(C)c4)c(C(C)C)c3c2)CC1` [Example 334, 5-(3-isopropyl-5-(1-propylpiperidin-4-yl)-1H-indol-2-yl)-1-methyl-3-(1-methyl-1H-pyrazol-4-yl) pyridin-2(1H)-one], the results for the IC50 in assay [1], in assay [2] and in assay [3] were 487 nM, 8.6 nM and 0.8 nM, respectively.
On the same counts, the results for `Cc1cc(-c2[nH]c3ccc(C4CCN(Cc5ncn(C)n5)CC4)cc3c2C(C)C)cn(C)c1=O` [Example 72, 5-(3-isopropyl-5-(1-((1-methyl-1H-1,2,4-triazol-3-yl)methyl)piperidin-4-yl)-1H-indol-2-yl)-1,3-dimethylpyridin-2(1H)-one] are at least 50000 nM, 21.8 nM and 17.3 nM.
On the same counts, the results for `COCCn1cc(-c2[nH]c3ccc(C4CCN(CC(=O)N(C)C)CC4)cc3c2C(C)C)cc(C)c1=O` [Example 159, 2-(4-(3-isopropyl-2-(1-(2-methoxyethyl)-5-methyl-6-oxo-1,6-dihydropyridin-3-yl)-1H-indol-5-yl)piperidin-1-yl)-N,N-dimethylacetamide] are 16600 nM, 10.2 nM and 19.7 nM.
On to `CC(C)c1c(-c2cc(C#N)c(=O)n(C)c2)[nH]c2ccc(C3CCNCC3)cc12` [Example 47, 5-(3-isopropyl-5-(piperidin-4-yl)-1H-indol-2-yl)-1-methyl-2-oxo-1,2-dihydropyridine-3-carbonitrile], for which the IC50 in assay [1] is 1890 nM; in assay [2], 31.9 nM; in assay [3], 41.1 nM.
On the same counts, the results for `Cc1nc(-c2[nH]c3ccc(C4CCN(CC(C)(C)O)CC4)cc3c2C(C)C)cn(C)c1=O` [Example 312, 5-(5-(1-(2-hydroxy-2-methylpropyl)piperidin-4-yl)-3-isopropyl-1H-indol-2-yl)-1,3-dimethylpyrazin-2(1H)-one] are 3170 nM, 35.1 nM and 22.2 nM.
On the same counts, the results for `Cc1cc(-c2[nH]c3ccc(C4CCNCC4)cc3c2C(C)C)cn(C)c1=O` [Example 2, 5-(3-isopropyl-5-(piperidin-4-yl)-1H-indol-2-yl)-1,3-dimethylpyridin-2(1H)-one] are 4340 nM, 1.6 nM and 5.1 nM.
Turning to `Cc1c(-c2[nH]c3ccc(C4CCN(CC(=O)N(C)C)CC4)cc3c2C(C)C)cc(C#N)c(=O)n1C` [Example 145, 2-(4-(2-(5-cyano-1,2-dimethyl-6-oxo-1,6-dihydropyridin-3-yl)-3-isopropyl-1H-indol-5-yl)piperidin-1-yl)-N,N-dimethylacetamide], the figures for the IC50 in assay [1], in assay [2] and in assay [3] were 7170 nM, 63.8 nM and 10.7 nM, respectively.
For `CCn1cc(-c2[nH]c3ccc(C4CCN(CC(=O)NC)CC4)cc3c2C(C)C)cc(C)c1=O` [Example 132, 2-(4-(2-(1-ethyl-5-methyl-6-oxo-1,6-dihydropyridin-3-yl)-3-isopropyl-1H-indol-5-yl)piperidin-1-yl)-N-methylacetamide] the same measures were 25500 nM, 9 nM and 15.1 nM.
For `Cc1cc(-c2[nH]c3ccc(C4CCN(C5CCC(C(F)(F)F)CC5)CC4)cc3c2C(C)C)cn(C)c1=O` (stereo not drawn) [Example 231, 5-(3-isopropyl-5-(1-(4-(trifluoromethyl)cyclohexyl)piperidin-4-yl)-1H-indol-2-yl)-1,3-dimethylpyridin-2(1H)-one] the same measures were 3230 nM, 7 nM and 22.3 nM.

The values are drawn from patent US11447466B2, “Substituted indole compounds useful as inhibitors of TLR7/8/9” (BRISTOL-MYERS SQUIBB COMPANY, priority 2017, dated 2022).
